Data set [1] in a line: PBMC Acute Infection, cytotoxicity (CC50/CC90). Type of data set: cell-based. The following applies: human. The method, then:
(§1) PHA-stimulated cells from at least two normal donors were pooled (i.e. mixed together), diluted in fresh medium to a final concentration of 1×10^6 cells/mL, and plated in the interior wells of a 96-well round bottom microplate at 50 μL/well (5×10^4 cells/well). Pooling of mononuclear cells from more than one donor was used to minimize the variability observed between individual donors in quantitative and qualitative differences in HIV infection and overall response to the PHA and IL-2 of primary lymphocyte populations. Each plate contained virus control wells (cells plus virus) and experimental wells (drug plus cells plus virus) of either 00KE_KER2008 (Subtype A), IIIB (Subtype B), or 98US_MSC5016 (Subtype C). Test drug dilutions were prepared at a 2×concentration and 100 μL of each concentration was placed in appropriate wells. Fifty μL of a predetermined dilution of virus stock was placed in each test well (final MOI≅0.1). After this period, cell-free supernatant samples were collected for analysis of reverse transcriptase (RT) activity with an RT assay. […] In the Table below SI50=CC50/EC50 and SI90=CC90/EC90.

Data set [2] has as its system Vif-dependent APOBEC3G degradation. In words: Vif-Dependent APOBEC3G Degradation Assay. Format: cell-based, HIV. As for the experimental part:
APOBEC3G-V5-mCherry was stably expressed from the pIRES-P vector in 293T cells under puromycin selection. Fifty ng of plasmid expressing Vif-HA (accession no. AB573087) was transfected into the cells in 384-well format with Turbofect on a liquid handling robot. Four hours after transfection the compounds were added to cells in a range from 0-15 μM. Twenty-four hours after compound addition mCherry fluorescence was read on a BioTek Synergy4 plate reader (ex=587 nm, em=610 nm). Relative fluorescence units (RFU) from compound treated wells were quantified using thresholds set by the −Vif (positive control) and +Vif (negative control).

For data set [3], the target named is T1, HIV-1 Integrase (Human immunodeficiency virus type 1 group M subtype B, UniProt P12497).
T1 construct: the integrase assay was conducted using the XpressBio HIV-1 Integrase Assay Kit; purchased XpressBio
Briefly: integrase assay (XpressBio HIV-1 Integrase Assay Kit). Format: biochemical. As for the experimental part:
For the assays listed in Table I, the integrase assay was conducted using the XpressBio HIV-1 Integrase Assay Kit according to the manufacture's protocol. The protease assay was conducted with the Anthranilyl (Abz)-HIV Protease Substrate (Bachem H-2992), a hexapeptide FRET substrate derived from the p24/p15 cleavage site of the viral gag-pol poly-protein, which allows the screening of potential HIV protease inhibitors. 1 mM Abz-Substrate was diluted with Assay Buffer to a working stock of 20 μM. A 50 μM stock HIV-1 protease (received from Sook-kyung Lee (UNC)) was diluted with Assay Buffer (50 mM HEPES, pH 6.8, 150 mM NaCl, and 1% DMSO) to a working stock of 100 nM. 2 μl 100 nM HIV-1 Protease along with 2 uL 20 μM Abz Substrate was added into each well and incubated at room temperature (avoiding light) for 1 hour before being read on an Envision plate reader (Perkin Elmer) excitation at 280 nm, emission at >435 nm. The reverse transcriptase assay utilized purified recombinant HIV (pNL4-3) heterodimeric (p66/p51) Reverse Transcriptase (RT) that was purchased from a commercially available source. The assay was performed in 96-well filter plate, where RT activity was determined by the incorporation of radiolabeled deoxyribonucleotides into the newly synthesized DNA strand. The RT reaction mixture contained in vitro transcribed viral RNA derived from the HIV-1NL4-3 5′-LTR region (position 454 to 652) and primer that is complementary to the primer binding site (PBS, nucleotide residues nucleotides 636 to 652), radiolabeled deoxyribonucleotide, dNTPs and reverse transcriptase. Briefly, the reaction was carried out in a volume of 50 μl containing 50 mM Tris HCl, pH 7.8, 50 mM KCl, 5 mM MgCl2, 1 mM DTT, 50 μM each of dATP, dCTP, dGTP, 50 nM dTTP, 1 μCi of [^3H] dTTP (70-90 Ci/mM) and 5 nM template/primer. The reaction was initiated by the addition of 10 nM RT. For compound screening, serially diluted test articles were added to the reaction followed by the addition of RT. The reaction mixture was incubated at 37° C. for 1 h, and then quenched by the addition of ice-cold trichloroacetic acid (TCA) to the final concentration of 10%. The plate was incubated at 4° C. for 1 h to precipitate the synthesized DNA, then rinsed 3-times with 10% TCA and 1 time with 70% ethanol. After addition of 25 μl scintillation fluid to completely dried wells, radioactivity is counted by MicroBeta scintillation counter. The reduction of radioactivity represents the potency of compound inhibition.

Data set [4] concerns 00KE_KER2008 (Subtype A). In words: PBMC Acute Infection, 00KE_KER2008. Type of data set: cell-based, HIV. Particulars: Human immunodeficiency virus 1, PBMC, isolate 00KE-KER2008, subtype A, RT activity readout; for EC50: read-out: EC50; for EC90: read-out: EC90. As for the experimental part:
as §1

Data set [5] concerns the target T2, topoisomerase I (TOP1) (Homo sapiens, UniProt P11387).
T2 sequence (P11387 1-765): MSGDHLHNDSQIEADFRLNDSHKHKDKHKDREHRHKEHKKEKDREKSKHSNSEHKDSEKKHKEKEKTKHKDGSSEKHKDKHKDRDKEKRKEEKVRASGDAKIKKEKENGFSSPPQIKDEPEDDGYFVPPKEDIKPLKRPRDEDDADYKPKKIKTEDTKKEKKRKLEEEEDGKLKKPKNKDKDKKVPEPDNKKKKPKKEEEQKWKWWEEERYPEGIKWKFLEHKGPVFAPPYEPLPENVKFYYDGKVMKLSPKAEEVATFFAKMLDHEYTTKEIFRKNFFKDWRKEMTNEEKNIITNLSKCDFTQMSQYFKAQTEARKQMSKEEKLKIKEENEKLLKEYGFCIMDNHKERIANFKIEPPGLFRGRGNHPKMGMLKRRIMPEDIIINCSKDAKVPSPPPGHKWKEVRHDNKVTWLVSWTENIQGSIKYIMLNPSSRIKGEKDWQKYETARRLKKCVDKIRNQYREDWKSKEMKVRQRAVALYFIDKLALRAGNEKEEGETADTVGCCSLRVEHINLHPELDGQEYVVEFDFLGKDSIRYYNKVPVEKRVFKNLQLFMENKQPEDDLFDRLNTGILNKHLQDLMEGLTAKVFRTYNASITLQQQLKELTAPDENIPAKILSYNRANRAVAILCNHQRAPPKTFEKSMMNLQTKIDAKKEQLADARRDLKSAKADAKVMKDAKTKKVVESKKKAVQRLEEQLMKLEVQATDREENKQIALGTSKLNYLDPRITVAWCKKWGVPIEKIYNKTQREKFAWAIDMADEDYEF
Briefly: topoisomerase I inhibition.

The mark [6] stands for this setting: PHA-stimulated PBMCs pooled from at least two normal donors, row of isolate 00KE-KER2008, subtype A.
The mark [7] stands for this setting: Human immunodeficiency virus 1, HEK-293T, 24 h, read-out: EC50, A3G Degradation Assay.
Where [8] appears, read: Human immunodeficiency virus 1, read-out: A3G degradation at.
Where [9] appears, read: row of isolate 00KE-KER2008, subtype A.

The results in this text go back to US20220000860A1, “COMPOUNDS, COMPOSITIONS, AND METHODS FOR TREATING HUMAN IMMUNODEFICIENCY VIRUS” (OYAGEN, INC., priority 2017, published 2022).

Read-outs that look alike come from different tables or passages of the source. Bounds are passed on as bounds.

Turning to `CCc1c2c(nc3ccc(N)cc13)-c1cc3c(c(=O)n1C2)CNC(=O)[C@]3(O)CC` [Compound O5-SN, (S)-9-Amino-4,11-diethyl-4-hydroxy-1,2-dihydroquinolino[2′,3′:3,4]pyrrolo[1,2-b][2,7]naphthyridine-3,14(4H,12H)-dione], the 50% cytotoxic concentration (CC50) – broadly, the concentration at which the toxic effect on the cells reaches its halfway point – in data set [1] (setting [6]) is 2530 nM; in data set [1] (PHA-stimulated PBMCs pooled from at least two normal donors, row of isolate 98US_MSC5016, subtype C), 2530 nM; in data set [1] (PHA-stimulated PBMCs pooled from at least two normal donors, row of isolate IIIB, subtype B), 6290 nM. This compound also registered a CC90 in data set [1] (setting [6]) above 100000 nM. Also, the “Vif-dependent A3G degradation (result in words)” value in data set [2] is recorded as “block”. For the same compound, the values for the EC50 in data set [2] (setting [7]), in data set [2] (setting [8]) and in data set [4] were 99 nM, 84 nM and 6 nM, respectively. Also, in data set [3], the concentration for half-maximal inhibition (IC50) (as a rule, the midpoint of a concentration-inhibition curve) was above 100000 nM. The “activity against HIV integrase (result in words)” value in data set [3] was “inactive”. For the same compound, the EC90 – broadly, the concentration at which the effect reaches the 90% level – in data set [4] is 18 nM. The “inhibition of topoisomerase I (TOP1) (result in words)” value in data set [5] is “do not inhibit”.
In the case of `CCc1c2c(nc3ccc(O)cc13)-c1cc3c(c(=O)n1C2)CNC(=O)[C@]3(O)CC` [SN38-L, (S)-4,11-Diethyl-4,9-dihydroxy-1,2-dihydroquinolino[2′,3′:3,4]pyrrolo[1,2-b][2,7]naphthyridine-3,14(4H,12H)-dione], the CC50 in data set [1] (setting [9]) was found to be 1180 nM; in data set [1] (row of isolate 98US_MSC5016, subtype C) it was 1180 nM; in data set [1] (row of isolate IIIB, subtype B) it was 5790 nM. For the same compound, the CC90 in data set [1] (setting [9]) turned out to be 27900 nM. Further, in data set [2], the “Vif-dependent A3G degradation (result in words)” value is recorded as “block”. Further, the EC50 in data set [2] (setting [7]) came out at 84 nM; in data set [2] (setting [8]) it was 99 nM; in data set [4], 4 nM. The same compound had an IC50 in data set [3] above 100000 nM. Besides, the “activity against HIV integrase (result in words)” value in data set [3] is “inactive”. The EC90 in data set [4] stood at 15 nM. Moreover, the “inhibition of topoisomerase I (TOP1) (result in words)” value in data set [5] is “do not inhibit”.
